EC50 and IC50 data for nine compounds are collected here from patent publication US9315475B2 (MERCK SHARP & DOHME CORP., priority 2011, dated 2016).

pEC50, pIC50: −log10 of the molar value.

Assay [1] relates to HIV-1 (H9IIIB strain). As to the kind of experiment: Antiviral acute infection assay in cell culture (Spread). In kind it is cell-based. The conditions noted are these: Human immunodeficiency virus 1, T-lymphoid, HIV-1 H9IIIB infection of MT-4 human T-lymphoid cells in 10% FBS; mean of at least two independent experiments. From the text: Antiviral Assays in Cell Culture (“Spread”)
Acute Infection Assay (“Spread”) data were generated using HIV-1 (H9IIIB strain) infection of MT-4 human T-lymphoid cells in 10% FBS, and according to the methods disclosed by J. P. Vacca et al, “L-735,524: An orally bioavailable human immunodeficiency virus type 1 protease inhibitor,” Proc. Natl. Acad. Sci. USA, Vol. 91, pp. 4096-4100 (April 1994).

Assay [2] concerns the target T1, wildtype HIV-1 protease (Human immunodeficiency virus type 1 group M subtype B, UniProt P04585).
T1 construct: the wildtype HIV-1 protease (which was expressed in Escherichia coli); made in house; host or cells: Escherichia coli
As to the kind of experiment: Assay for inhibition of microbial expressed HIV protease (Pepcleav). The class given is biochemical. Particulars: wild type HIV-1 protease expressed in E. coli, peptide substrate, pH 5.5; mean of at least two independent experiments; read-out: Pepcleav. An outline of the steps:
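E. coli-expressed wild-type HIV-1 protease (20 pM) preincubated 30 min at room temperature with inhibitor in pH 5.5 sodium acetate/NaCl/BSA buffer, then 400 μM Val-Ser-Gln-Asn-(βnaphthyl)Ala-Pro-Ile-Val added for 1 h at 30 °C. Quenched with formic acid; product quantified by LC-MS/MS peak area, indinavir internal standard.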

A word on the pEC50: it is the EC50 on a negative log10 scale, so that one unit is a factor of ten.

Compound `N[C@H](C(=O)Nc1cncc(F)c1CC[C@@H]1CN[C@H](C(=O)Nc2ccccc2O)CO1)C(c1ccc(F)cc1)c1ccc(F)cc1` [Example 271, 4-fluoro-N-[5-fluoro-4-(2-{(2R,5S)-5-[(2-hydroxyphenyl)carbamoyl]morpholin-2-yl}ethyl)pyridin-3-yl]-β-(4-fluorophenyl)-L-phenylalaninamide] gave a pEC50 in assay [1] of 6.09. Further, the pIC50 in assay [2] was 8.70.

As to `N[C@H](C(=O)Nc1cncc(F)c1CC[C@@H]1CN[C@H](COC(=O)NCc2nc3ccncc3[nH]2)CO1)C(c1ccc(F)cc1)c1ccc(F)cc1` [Example 242, 4-fluoro-N-(5-fluoro-4-{2-[(2R,5S)-5-({[(3H-imidazo[4,5-c]pyridin-2-ylmethyl)carbamoyl]oxy}methyl)morpholin-2-yl]ethyl}pyridin-3-yl)-β-(4-fluorophenyl)-L-phenylalaninamide], the negative-log EC50 (pEC50) in assay [1] is 6.22. In addition, in assay [2], the pIC50 is 7.60.

`N[C@H](C(=O)Nc1cncc(F)c1CC[C@@H]1CN[C@H](COC(=O)NC[C@@H]2CCC(=O)N2)CO1)C(c1ccc(F)cc1)c1ccc(F)cc1` [Example 235, 4-fluoro-N-(5-fluoro-4-{2-[(2R,5S)-5-{[({[(2S)-5-oxopyrrolidin-2-yl]methyl}carbamoyl)oxy]methyl}morpholin-2-yl]ethyl}pyridin-3-yl)-β-(4-fluorophenyl)-L-phenylalaninamide] gave a pEC50 in assay [1] of 5.30. Further, the pIC50 in assay [2] was 7.01.

In turn, `CC1(CNC(=O)OC[C@@H]2CO[C@H](CCc3c(F)cncc3NC(=O)[C@@H](N)C(c3ccc(F)cc3)c3ccc(F)cc3)CN2)CCCO1` (stereo partly drawn) [Example 123, 4-Fluoro-N-[5-fluoro-4-(2-{(2R,5S)-5-[({[(2-methyltetrahydrofuran-2-yl)methyl]carbamoyl}oxy)methyl]morpholin-2-yl}ethyl)pyridin-3-yl]-β-(4-fluorophenyl)-L-phenylalaninamide] gave a pEC50 in assay [1] of 7.72. For the same compound, the pIC50 in assay [2] is 8.49.

Turning to `NC(=O)OC[C@@H]1CO[C@H](COc2c(F)cncc2NC(=O)[C@@H](N)C(c2ccc(F)cc2)c2ccc(F)cc2)CN1` [Example 206, N-[4-({(2S,5S)-5-[(carbamoyloxy)methyl]morpholin-2-yl}methoxy)-5-fluoropyridin-3-yl]-4-fluoro-β-(4-fluorophenyl)-L-phenylalaninamide], in assay [1], the pEC50 is 6.92. In addition, the pIC50 in assay [2] is 7.68.

In assay [1], `N[C@H](C(=O)Nc1cccc(F)c1CC[C@@H]1CN[C@H](COC(=O)NCC(F)(F)F)CO1)C(c1cccc(F)c1)c1cccc(F)c1` [Example 262, 3-fluoro-β-(3-fluorophenyl)-N-(3-fluoro-2-{2-[(2R,5S)-5-({[(2,2,2-trifluoroethyl)carbamoyl]oxy}methyl)morpholin-2-yl]ethyl}phenyl)-L-phenylalaninamide] gave a pEC50 of 7.82. Further, the pIC50 in assay [2] is 8.40.

With `N[C@H](C(=O)Nc1cncc(F)c1CC[C@@H]1CN[C@H](COC(=O)NCC(F)(F)F)CO1)[C@H](c1ccccc1)c1ccc(F)c(F)c1` [Example 259, (βR)-β-(3,4-difluorophenyl)-N-(5-fluoro-4-{2-[(2R,5S)-5-({[(2,2,2-trifluoroethyl)carbamoyl]oxy}methyl)morpholin-2-yl]ethyl}pyridin-3-yl)-L-phenylalaninamide], the pEC50 in assay [1] is 7.18. In addition, the pIC50 in assay [2] is 8.30.

Compound `O=C(C[C@@H](c1ccc(F)cc1)c1cc(F)ccc1F)Nc1cncc(F)c1CC[C@@H]1CN[C@H](COC(=O)NCC(F)(F)F)CO1` [Example 149, {(3S,6R)-6-[2-(3-{[(3S)-3-(2,5-difluorophenyl)-3-(4-fluorophenyl)propanoyl]amino}-5-fluoropyridin-4-yl)ethyl]morpholin-3-yl}methyl (2,2,2-trifluoroethyl)carbamate] showed a pEC50 in assay [1] of 7.85. Further, the pIC50 in assay [2] is 8.85.

In assay [1], `COC(=O)N[C@H](C(=O)Nc1cncc(F)c1CC[C@@H]1CN[C@H](COC(=O)NCC(F)(F)F)CO1)[C@@H](c1ccc(F)cc1)c1ccc(F)c(F)c1` [Example 288] had a pEC50 of 7.80. Besides, in assay [2], the pIC50 was 8.49.
